From patent publication US10590129B2 (Incozen Therapeutics Pvt. Ltd., priority 2010, dated 2020)
Where two headings read alike, the source gives them in different places.

Assays:
Akt [1] = assay: Inhibition of Akt phosphorylation in NCI-H441 cells (western blot, pAkt S473); type: cell-based; settings: Homo sapiens
Method: (§1) Inhibition of Akt Phosphorylation in MKN-45 or NCI-11441 Cells:
(§2) Akt is a serine-threonine kinase and a downstream marker regulated by c-Met kinase via the PI3K pathway. Once phosphorylated, Akt regulates several end processes including cell survival and growth. Cells were treated with 0−1000 nM of test compounds, lysed, and the proteins separated on a 10% SDS-PAGE. Following separation, proteins were transferred onto a nitrocellulose membrane and detected by chemiluminescence after incubation with pAkt S473 mAb (primary) and rabbit anti-mouse Ab (secondary). Intensity of the bands was determined using ImageJ 1.42q (NIH, USA) and normalized to Actin (loading control).

MKN-45 cells [2] = assay: Inhibition of MKN-45 proliferation (MTT); type: cell-based, human; settings: for GI50 / inhibition at 0.1 µM: Homo sapiens, MKN-45, MKN-45 proliferation; for Inhibition (% Inhibition of MKN-45 proliferation) / inhibition at 0.1 µM: 0.1 μM
Procedure, shortened: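 Viability measured by MTT dye reduction on day 5 after compound addition on day 2 to MKN-45 gastric adenocarcinoma cells (high Met expression) seeded on day 1 in complete medium.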

c-Met [3] = target: T1, c-Met (Homo sapiens, UniProt P08581); assay: Inhibition of c-Met kinase phosphorylation in NCI-H441 cells (cell based ELISA); design: endogenous in cells; host or cells: NCI-H441; settings: 1 h
Method: Inhibition of c-Met Kinase Phosphorylation in NCI—H441 Cells:
Inhibition of Met phosphorylation was determined using a cell based ELISA assay according to the following schedule:
Day 1: NCI—H441 cells were plated in 96-well plates in complete growth medium.
Day 2: Inhibitors at the desired concentration were added to the plates, incubated for 1 h and lysed subsequently. Lysates were transferred to NUNC Maxisorp plates coated with anti-cMet receptor antibody. Phopho-tyrosine mAb and HRP-lined anti-mouse IgG were used as primary and secondary antibodies respectively. Optical density was measured on a microplate reader (BMG Labtech., Germany) at […].

Met kinase [4] = target: T2, Met kinase (Homo sapiens, UniProt P08581); assay: Inhibition of HGF-induced Met phosphorylation in MDA-MB-231 cells; type: cell-based; design: endogenous in cells; host or cells: MDA-MB-231; settings: HGF 50 ng/ml, read-out: HGF stimulated Met phosphorylation (IC50)
Met kinase [5] = target: T2, Met kinase; assay: MET kinase assay (colorimetric determination of c-Met kinase activity, HTScan Met Kinase Assay Kit); type: biochemical; design: purchased Cell Signalling Technology, Beverly, Mass; settings: for IC50: c-Met kinase
Description: 1. MET Kinase Assay Protocol:
Colorimetric Determination of c-Met Kinase Activity
The receptor tyrosine kinase c-Met is a heterodimeric transmembrane glycoprotein involved in several cellular processes that aid in tumor progression. Phosphorylation of the tyrosine residues in the c-Met kinase domain is critical for its activity and the resulting down-stream effects. The colorimetric assay allows detection of the phosphorylated form of a biotinylated peptide upon activation of human recombinant Met kinase.
MET Kinase Assay Protocol:
c-Met Kinase activity shall be determined using an HTScan® Met Kinase Assay Kit (Cell Signalling Technology, Beverly, Mass.) with modifications. All incubations are carried out at room temperature. Briefly, 12.5 μl of a 4× reaction cocktail (DTT/Kinase buffer containing appropriate quantity of human Met kinase) is added to each well of a 96-well plate containing 12.5 μl pre-diluted compound of interest and incubated for 5 minutes. After the initial incubation, 25 μl/well of 2×ATP/biotinylated peptide is added and incubated for an additional 30 minutes. The reaction is terminated by the addition of 50 μl/well stop buffer (50 mM EDTA, pH 8.0). The reaction mixture (25 μl/well) is then transferred to a streptavidin coated plate (Perkin Elmer, Cat#4009-0010) containing 75 μl dH2O and incubated for 60 minutes. The plate is washed with 200 μl/well wash buffer (1×PBS, 0.05% Tween-20). After washing, 100 μl/well phospho-tyrosine mAb (1:1000 in wash buffer containing 1% BSA) is added and incubated for 60 minutes. After another round of washes, 100 μl/well europium labelled anti-mouse IgG (1:500 in wash buffer containing 1% BSA) is added and incubated for an additional 30 minutes. Following additional washes, 100 μl/well Delfia® enhancement solution (Perkin Elmer, Cat#1244-105) is added and incubated for 45 minutes. Florescence is measured on a microplate reader (BMG Labtech., Germany) at 340 nm (excitation) and 615 nm (emission) for calculating % inhibition. Data generated can be analyzed further using Graphpad Prism (Graphpad software, San Diego Calif.) for determination of IC50.

MKN-45 cells [6] = assay: Induction of apoptosis in MKN-45 cells (caspase-3 activity); type: cell-based, human; settings: @ 3 μM, 24 h, caspase-3, percent of maximum response
Method: 6. Induction of Apoptosis in MKN-45 Cells:
Induction of Caspase 3 was measured fluorimetrically. Cells were incubated with desired concentrations of the compound for 24 h. After incubation, cells were harvested and counted. An equal number of viable cells per well (0.3×10^6 cells) were used for determination of caspase-3 activity. Increase in apoptosis manifested by an elevation in caspase-3 levels was determined using a Caspase-3 kit from Millipore. Data are expressed as a percent of the maximum response (100%).

c-Met [7] = target: T1, c-Met; assay: Inhibition of c-Met kinase phosphorylation in MKN-45 cells (cell based ELISA); design: endogenous in cells; host or cells: MKN-45; settings: 1 h
Method: Inhibition of c-Met Kinase Phosphorylation in MKN-45 Cells:
MKN45 cells are a prototype of “c-Met addicted” cells having constitutively activated c-Met kinase similar to that observed in sub-sects of gastric or hepatocellular cancer patients with dysregulated c-Met kinase activity. Inhibition of Met phosphorylation was determined using a cell based ELISA assay according to the following schedule:
Day 1: MKN-45 cells were plated in 96-well plates in complete growth medium.
Day 2: Inhibitors at the desired concentration were added to the plates and incubated for 1 h and lysed subsequently.
Lysates were transferred to NUNC Maxisorp plates coated with anti-cMet receptor antibody. Phopho-tyrosine mAb and HRP-lined anti-mouse IgG were used as primary and secondary antibodies respectively. Optical density was measured on a microplate reader (BMG Labtech., Germany) at […]. Inhibition of c-Met phosphorylation in this cell line indicates a therapeutic potential for test compounds in patients diagnosed with cancers caused by aberrant c-Met kinase signalling.

Akt [8] = assay: Inhibition of Akt phosphorylation in MKN-45 cells (western blot, pAkt S473); type: cell-based; settings: Homo sapiens
Method: as §1, §2

RON = RON (Homo sapiens, UniProt Q04912); settings: cited from earlier work
c-Met [9] = target: T1, c-Met; settings: cited from earlier work

T2 sequence (P08581 25-1390): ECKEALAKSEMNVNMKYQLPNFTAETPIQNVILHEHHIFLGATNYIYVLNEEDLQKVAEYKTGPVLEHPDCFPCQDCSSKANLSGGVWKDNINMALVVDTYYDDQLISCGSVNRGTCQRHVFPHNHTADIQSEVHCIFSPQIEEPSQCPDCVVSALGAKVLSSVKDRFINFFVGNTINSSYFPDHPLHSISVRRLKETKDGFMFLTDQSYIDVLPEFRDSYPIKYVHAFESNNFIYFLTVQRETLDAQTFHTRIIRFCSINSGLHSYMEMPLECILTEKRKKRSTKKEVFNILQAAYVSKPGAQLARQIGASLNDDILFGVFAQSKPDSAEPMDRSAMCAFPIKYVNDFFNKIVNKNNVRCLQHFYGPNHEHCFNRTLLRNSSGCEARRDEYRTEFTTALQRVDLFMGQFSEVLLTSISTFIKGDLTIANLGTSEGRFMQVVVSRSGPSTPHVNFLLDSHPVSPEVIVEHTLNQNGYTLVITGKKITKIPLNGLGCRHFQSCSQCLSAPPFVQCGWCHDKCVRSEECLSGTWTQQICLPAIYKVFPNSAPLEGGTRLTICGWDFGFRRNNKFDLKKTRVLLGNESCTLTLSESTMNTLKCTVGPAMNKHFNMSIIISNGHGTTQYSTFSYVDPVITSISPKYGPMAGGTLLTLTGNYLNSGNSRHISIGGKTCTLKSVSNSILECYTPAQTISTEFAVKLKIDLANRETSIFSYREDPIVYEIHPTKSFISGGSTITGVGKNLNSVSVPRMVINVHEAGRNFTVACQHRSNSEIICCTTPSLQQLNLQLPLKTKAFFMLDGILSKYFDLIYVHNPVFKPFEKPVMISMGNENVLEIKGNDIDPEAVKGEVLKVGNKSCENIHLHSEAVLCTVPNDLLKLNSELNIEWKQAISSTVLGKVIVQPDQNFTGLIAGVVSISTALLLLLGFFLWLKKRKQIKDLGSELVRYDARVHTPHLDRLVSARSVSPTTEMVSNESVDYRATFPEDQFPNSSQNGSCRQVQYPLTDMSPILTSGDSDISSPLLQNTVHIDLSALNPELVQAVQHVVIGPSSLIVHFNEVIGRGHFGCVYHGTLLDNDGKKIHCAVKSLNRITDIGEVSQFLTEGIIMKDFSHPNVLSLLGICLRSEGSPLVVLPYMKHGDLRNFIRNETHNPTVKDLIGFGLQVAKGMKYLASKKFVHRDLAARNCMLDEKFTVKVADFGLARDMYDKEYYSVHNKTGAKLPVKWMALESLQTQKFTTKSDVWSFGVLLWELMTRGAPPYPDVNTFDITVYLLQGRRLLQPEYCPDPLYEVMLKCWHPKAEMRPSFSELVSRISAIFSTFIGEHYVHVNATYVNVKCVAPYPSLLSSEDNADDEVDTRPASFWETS
T1 sequence (P08581 25-1390): as above
RON, sequence (Q04912 25-1400, species assumed): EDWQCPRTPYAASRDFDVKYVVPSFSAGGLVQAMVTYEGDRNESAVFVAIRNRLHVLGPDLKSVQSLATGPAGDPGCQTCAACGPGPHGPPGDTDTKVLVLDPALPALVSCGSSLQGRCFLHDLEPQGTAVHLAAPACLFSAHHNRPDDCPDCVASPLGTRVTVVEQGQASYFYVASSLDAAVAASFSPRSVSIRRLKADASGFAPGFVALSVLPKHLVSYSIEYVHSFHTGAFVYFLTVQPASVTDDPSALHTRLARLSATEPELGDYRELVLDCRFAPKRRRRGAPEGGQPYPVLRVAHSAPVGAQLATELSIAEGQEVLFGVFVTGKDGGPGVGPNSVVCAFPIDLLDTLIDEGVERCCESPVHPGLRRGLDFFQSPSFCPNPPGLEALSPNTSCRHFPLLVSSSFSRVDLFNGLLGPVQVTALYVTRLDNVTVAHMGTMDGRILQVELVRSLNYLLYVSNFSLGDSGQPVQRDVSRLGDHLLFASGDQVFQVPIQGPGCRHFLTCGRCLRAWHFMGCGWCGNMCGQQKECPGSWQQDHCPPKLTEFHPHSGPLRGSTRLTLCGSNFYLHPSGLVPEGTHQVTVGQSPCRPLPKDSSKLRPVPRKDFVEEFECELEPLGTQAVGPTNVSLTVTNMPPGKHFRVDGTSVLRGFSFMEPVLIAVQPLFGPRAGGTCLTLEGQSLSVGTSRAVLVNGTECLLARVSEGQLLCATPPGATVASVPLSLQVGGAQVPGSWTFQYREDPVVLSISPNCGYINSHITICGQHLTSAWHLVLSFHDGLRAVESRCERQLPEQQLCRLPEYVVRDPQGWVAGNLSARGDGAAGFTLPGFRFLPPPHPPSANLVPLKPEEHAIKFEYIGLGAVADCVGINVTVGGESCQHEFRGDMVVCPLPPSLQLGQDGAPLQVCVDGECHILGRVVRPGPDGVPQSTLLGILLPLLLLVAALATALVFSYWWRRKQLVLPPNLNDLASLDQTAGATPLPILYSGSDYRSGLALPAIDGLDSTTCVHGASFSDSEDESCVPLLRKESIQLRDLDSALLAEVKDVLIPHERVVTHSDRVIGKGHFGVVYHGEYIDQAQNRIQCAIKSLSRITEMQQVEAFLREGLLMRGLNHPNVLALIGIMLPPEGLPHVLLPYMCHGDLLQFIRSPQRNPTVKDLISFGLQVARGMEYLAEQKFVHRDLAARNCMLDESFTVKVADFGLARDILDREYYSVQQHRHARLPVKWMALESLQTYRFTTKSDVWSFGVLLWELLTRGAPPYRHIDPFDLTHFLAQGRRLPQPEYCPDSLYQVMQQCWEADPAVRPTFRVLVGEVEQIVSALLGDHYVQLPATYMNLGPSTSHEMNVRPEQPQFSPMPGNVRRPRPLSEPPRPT

IC50 (Akt [1]) [nM] | GI50 (MKN-45 cells [2]) [nM] | IC50 (c-Met [3]) [nM] | IC50 (Met kinase [4]) [nM] | inhibition at 1 µM (Met kinase [5]) [%] | IC50 (Met kinase [5]) [nM] | melting point [°C] | IC50 (c-Met [7]) [nM] | IC50 (Akt [8]) [nM] | Compound | Inhibition (% Inhibition of MKN-45 proliferation) (MKN-45 cells [2]) | Apoptosis in MKN-45 cells (percentage induction) (MKN-45 cells [6]) | inhibition at 0.1 µM (MKN-45 cells [2]) [%] | IC50 (RON) [nM] | IC50 (c-Met [9]) [nM]
≤ 25 | ≤ 50 | ≤ 10 | ≤ 10 | 75 to 100 | ≤ 50 | 187 to 190 | ≤ 50 | ≤ 25 | CCNC(=O)c1ccc(-c2ccc3nnn(Cc4ccc5ncccc5c4)c3n2)cc1Cl [Ex 119, 2-Chloro-N-ethyl-4-(3-(quinolin-6-ylmethyl)-3H-[1,2,3]triazolo[4,5-b]pyridin-5-yl)benzamide] | A (A = ≥75 to 100%) | A (A = >50 to 100%) | – | – | –
≤ 25 | 50 to 150 | 10 to 50 | ≤ 10 | 75 to 100 | 50 to 100 | 198 to 200 | 50 to 150 | 100 to 200 | NC(=O)c1ccc(-c2ccc3nnn(Cc4ccc5ncccc5c4)c3n2)cc1F [Ex 15, 2-Fluoro-4-(3-(quinolin-6-ylmethyl)-3H-[1,2,3]triazolo[4,5-b]pyridin-5-yl)benzamide] | – | A (A = >50 to 100%) | – | – | –
≤ 25 | ≤ 50 | ≤ 10 | ≤ 10 | 75 to 100 | ≤ 50 | 212 to 215 | ≤ 50 | ≤ 25 | NC(=O)c1ccc(-c2ccc3nnn(Cc4ccc5ncccc5c4)c3n2)cc1Cl [Ex 108, 2-Chloro-4-(3-(quinolin-6-ylmethyl)-3H-[1,2,3]triazolo[4,5-b]pyridin-5-yl)benzamide] | – | A (A = >50 to 100%) | 50 to 75 | – | –
25 to 50 | ≤ 50 | – | ≤ 10 | 75 to 100 | ≤ 50 | – | ≤ 50 | 50 to 100 | NC(=O)c1c(F)cc(-c2ccc3nnn(Cc4ccc5ncccc5c4)c3n2)cc1F [Ex 130, 2,6-Difluoro-4-(3-(quinolin-6-ylmethyl)-3H-[1,2,3]triazolo[4,5-b]pyridin-5-yl)benzamide] | A (A = ≥75 to 100%) | B (B = ≤50) | – | – | –
≤ 25 | ≤ 50 | ≤ 10 | 10 to 50 | 75 to 100 | ≤ 50 | – | ≤ 50 | ≤ 25 | NC(=O)c1ccc(-c2ccc3nnn(Cc4cc5cccnc5cc4F)c3n2)cc1Cl [Ex 134, 2-Chloro-4-(3-((7-fluoroquinolin-6-yl)methyl)-3H-[1,2,3]triazolo[4,5-b]pyridin-5-yl)benzamide] | – | A (A = >50 to 100%) | 50 to 75 | – | –
– | – | – | – | – | – | – | – | – | COc1ccc2c(Oc3ccc(NC(=O)c4c(C)n(CC(C)(C)O)n(-c5ccccc5)c4=O)nc3)ccnc2c1 [AMG-458] | – | – | – | 9 | 4
≤ 25 | ≤ 50 | ≤ 10 | – | 75 to 100 | ≤ 50 | 265 to 267 | ≤ 50 | 50 to 100 | O=C(Nc1nc[nH]n1)c1ccc(-c2ccc3nnn(Cc4ccc5ncccc5c4)c3n2)cc1F [Ex 52, 2-Fluoro-4-(3-(quinolin-6-ylmethyl)-3H-[1,2,3]triazolo[4,5-b]pyridin-5-yl)-N-(1H-1,2,4-triazol-3-yl)benzamide] | D (D = <25%) | A (A = >50 to 100%) | – | – | –
